# Source: article PMC12763877 (Journal of Experimental & Clinical Cancer Research : CR, 2025)
# Read-outs that look alike come from different tables or passages of the source.
# How the values were obtained:
# [1] = test system: 4T1 cells (orthotopic breast cancer); assay: Anti-tumor efficacy in breast cancer mouse model, alone or with Sunitinib; assay type: in vivo, BALB/c mice
# Procedure: Female BABL/c mice aged 6–8 weeks were purchased from Beijing SPF Biological Co., LTD. 4T1 cells in good growth condition were collected and injected in situ into the mammary fat pad of female BALB/c mice at a density of 2 × 10⁶ cells per mouse. […] When the tumor size increased to approximately 1200 mm^3, we will conduct further tests. It should be pointed out that, when studying vascular leakage, DyLight™ 649-labeled tomato lectin (Tomoto-lectin) was injected intravenously into the mice via the tail vein two hours prior to tissue collection. The tumor tissues were then excised. Half of each tumor was fixed in 4% paraformaldehyde and subsequently processed for paraffin embedding and immunofluorescence staining. The remaining half was immediately frozen in liquid nitrogen and prepared as frozen sections for further experimental procedures.
# Paraffin-embedded mouse tumor tissue sections were deparaffinized, rehydrated, and fixed with 4% paraformaldehyde at room temperature for 20 min. After washing with PBS, the sections were permeabilized with 1% Triton X-100 (Solarbio, China) for 15 min at room temperature, followed by blocking with 5% bovine serum albumin (BSA) in PBS containing 0.1% Triton X-100 for 1 h at room temperature to reduce nonspecific binding. […] After washing, the sections were further incubated overnight at 4 °C with primary antibodies against dsDNA and HSP60. The next day, the sections were incubated with Alexa Fluor 647-conjugated goat anti-rabbit IgG (H + L) secondary antibody (catalog no. A0468, Beyotime Biotechnology, China) for 1 h at room temperature in the dark. Nuclear staining was performed using DAPI (catalog no. C0060, Solarbio, China).
# To observe metastasis, tissues were harvested and fixed in Bouin’s solution (saturated picric acid 75 ml + 40% formaldehyde 25 ml + glacial acetic acid 5 ml). After fixation, tissues were stained with picric acid to visualize metastatic nodules, which appeared as distinct lesions against the background tissue.
# HUVEC [2] = assay: Tube formation assay; assay type: cell-based, human; details: candesartan 15, 7.5, 3.75 µM; sunitinib 2 µM
# Procedure: The 96-well plate was coated with 50 µl matrix glue per well, and then HUVEC was inoculated into the 96-well plate coated with matrix glue with a density of 4 × 10^4 cells per well. Photos were taken with an optical microscope (Nikon, China) after culture at 37℃ and 5% CO2 for 6–8 h, and the length of the generated blood vessels was analyzed using ImageJ.
# HUVEC [3] = assay: Sulforhodamine B proliferation assay; assay type: cell-based, human; details: for IC50: Homo sapiens, HUVEC, read-out: IC50, HUVEC proliferation
# Procedure: The culture medium was aspirated from the plates, and cells were fixed with 10% trichloroacetic acid (TCA) for 30 min. The plates were then washed twice with distilled water and air-dried. Subsequently, 0.4% sulforhodamine B (SRB) solution was added, and the plates were stained on a shaker for 20 min. The staining solution was discarded, and excess dye was removed by washing with freshly prepared 1% acetic acid. After air-drying, 10 mM Tris solution was added to each well. The plates were agitated on a shaker for 5 min to dissolve the dye, and the absorbance was measured at 560 nm using a microplate reader.
# Angiogenesis is a multi-step process requiring coordinated endothelial functions, such as cell migration, proliferation, and extracellular matrix remodeling. […] Moreover, in the later stages of angiogenesis, vascular endothelial cells undergo proliferation and migration and further align to form cord-like, lumen-like structures(21). Thus, we conducted a vascular tube formation assay to evaluate the effect of candesartan on vascular normalization.
# [4] = test system: FAK-MMP9 signaling in HUVEC; assay: Western blot of FAK and MMP-9; assay type: cell-based, human; details: candesartan 15, 7.5, 3.75 µM; sunitinib 2 µM
# Procedure: Total protein was extracted using RIPA lysis buffer (Solarbio, China) supplemented with phenylmethylsulfonyl fluoride (PMSF; Thermo Fisher Scientific, USA), protease inhibitor cocktail (Roche, Switzerland), and phosphatase inhibitor cocktail (Roche, Switzerland). Protein concentration was determined using a BCA protein assay kit (Thermo Fisher Scientific, USA). Equal amounts of protein were separated by 10% SDS-polyacrylamide gel electrophoresis (SDS-PAGE) and transferred onto nitrocellulose (NC) membranes. […] All primary antibodies were purchased from Cell Signaling Technology (CST, USA), except for GAPDH, which was obtained from Proteintech (Wuhan, China). After washing, the membranes were incubated with HRP-conjugated goat anti-rabbit or anti-mouse IgG secondary antibodies (Biosharp, China) for 1 h at room temperature. Protein bands were visualized using an enhanced chemiluminescence (ECL) detection system and scanned using a chemiluminescence imaging system.
# zebrafish embryos = assay: Zebrafish embryo toxicity; assay type: in vivo, zebrafish (Danio rerio); details: embryos exposed 12 to 48 hpf, survival
# Procedure: Transgenic zebrafish Tg(flk: EGFP) were obtained from the China Zebrafish Resource Center and maintained at 28 ± 1 °C under a 14-hour light/10-hour dark cycle. […] Survival rates were recorded to calculate the median lethal concentration (LC₅₀). For the retinal angiogenesis assay, embryos at 1 day post fertilization (dpf) were transferred to E3 medium containing 5 mM CoCl₂·6 H₂O and 2.5 µg/mL GS4012 to induce hypoxia and abnormal vessel formation. At 3 dpf, test compounds were added and incubation continued until 5 dpf. Blank, model, and vehicle (≤ 0.1% DMSO) controls were included, with at least three replicates per group (n = 10–15 embryos). At 5 dpf, retinal vasculature was imaged using fluorescence microscopy and analyzed for branching number, vessel length, and density using ImageJ. Data are presented as mean ± standard deviation (SD) and analyzed using one-way ANOVA followed by Tukey’s post hoc test, with p < 0.05 considered statistically significant.
# The zebrafish (Danio rerio) model was employed due to its distinct advantages, the optical transparency, which enable in vivo vascular visualization. […] Firstly, the 8 candidate compounds underwent preliminary toxicity evaluation in zebrafish embryos. […] At 48 hpf, the number of surviving embryos was quantified, and the lethal dose 50 (LD50) for each compound was determined based on the survival data. […]
# [5] = candesartan 10 mg/kg, Sunitinib 40 mg/kg
structure (smiles),measurement,setting,value
"CCOc1nc2cccc(C(=O)O)c2n1Cc1ccc(-c2ccccc2-c2nnn[nH]2)cc1 [Compound A-2, Candesartan]",Tumor growth,"[1]; candesartan 10 mg/kg once daily, Sunitinib 40 mg/kg every two days, intragastric, 14 days, vs vehicle",significantly reduce the tumor growth
same,Coverage of pericytes on endothelial cells in tumors (CD31/α-SMA),[1]; [5],significantly increased
same,Lung surface nodules / pulmonary metastasis,[1]; [5],inhibited pulmonary metastasis of breast cancer
same,Tube formation: mean mesh size and total mesh area,HUVEC [2],increase the mean mesh and the total meshe area
same,"Tube formation: number of junctions, total segment length, number of meshes",HUVEC [2],"significantly reduced the number of junctions, total segment length, and the number of meshes"
same,Cytotoxicity on HUVEC cells,HUVEC [3]; 15 µM,no significant cytotoxicity
same,IC50,HUVEC [3]; 48 h,32.4 ± 1.69 µM
same,IC50,HUVEC [3]; 72 h,27.1 ± 0.91 µM
same,Expression of MMP9 and FAK,[4],significantly decreased the expression of MMP9 and FAK
same,"LD50(µM,48 h)",zebrafish embryos,1.10 ± 0.12 µM
